According to PMC11191095, “QSAR Reveals Decreased Lipophilicity of Polar Residues Determines the Selectivity of Antimicrobial Peptide Activity” (ACS Omega, 2024):
Where a SMILES comes first, the peptide text is derived from it.

Experiments:
E. coli LEC001 = assay: microbe, parasite or virus in culture; format: cell-based, Escherichia coli; details: E. coli LEC001 (R); shown in µM
Summary of the method: (§1)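 Peptides 128→2 μg/mL, 2-fold series; inoculum ~5 × 10^5 CFU/mL from overnight culture (OD600 0.01, mixed 1:1). MHB non-cation-adjusted for bacteria, RPMI 1640 + 2% glucose for fungi. 37 °C, 20 h, OD600. MIC50/MIC90 at 50%/90% inhibition; n ≥ 3.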

E. coli NCTC 12923 = assay: microbe, parasite or virus in culture; format: cell-based, Escherichia coli; details: E. coli NCTC 12923 (S); shown in µM
Summary of the method: as §1

P. aeruginosa NCTC 13437 = assay: microbe, parasite or virus in culture; format: cell-based, Pseudomonas aeruginosa; details: P. aeruginosa NCTC 13437 (R); shown in µM
Summary of the method: as §1

P. aeruginosa PAO1 = assay: microbe, parasite or virus in culture; format: cell-based, Pseudomonas aeruginosa; details: P. aeruginosa PAO1 (S); shown in µM
Summary of the method: as §1

A. baumannii ATCC 17978 = assay: microbe, parasite or virus in culture; format: cell-based, Acinetobacter baumannii; details: A. baumannii ATCC 17978 (S); shown in µM
Summary of the method: as §1

A. baumannii AYE = assay: microbe, parasite or virus in culture; format: cell-based, Acinetobacter baumannii; details: A. baumannii AYE (R); shown in µM
Summary of the method: as §1

K. pneumoniae M6 = assay: microbe, parasite or virus in culture; format: cell-based, Klebsiella pneumoniae; details: K. pneumoniae M6 (S); shown in µM
Summary of the method: as §1

K. pneumoniae NCTC 13368 = assay: microbe, parasite or virus in culture; format: cell-based, Klebsiella pneumoniae; details: K. pneumoniae NCTC 13368 (R); shown in µM
Summary of the method: as §1

S. aureus (MRSA) 1199B = assay: microbe, parasite or virus in culture; format: cell-based, Staphylococcus aureus; details: S. aureus (MRSA) 1199B (R); shown in µM
Summary of the method: as §1

[1] = test system: S. aureus (MRSA) NCTC 13616; assay: microbe, parasite or virus in culture; format: cell-based, Staphylococcus aureus; details: S. aureus (MRSA) NCTC 13616 (R); shown in µM
Summary of the method: as §1

S. aureus (MRSA) USA300 = assay: microbe, parasite or virus in culture; format: cell-based, Staphylococcus aureus; details: S. aureus (MRSA) USA300 (R); shown in µM
Summary of the method: as §1

[2] = test system: S. aureus (MSSA) ATCC 9144; assay: microbe, parasite or virus in culture; format: cell-based, Staphylococcus aureus; details: S. aureus (MSSA) ATCC 9144 (S); shown in µM
Summary of the method: as §1

C. auris TDG 1912 = assay: microbe, parasite or virus in culture; format: cell-based, Candida auris; details: C. auris TDG 1912
Summary of the method: as §1

C. albicans NCPF 3281 = assay: microbe, parasite or virus in culture; format: cell-based; details: C. albicans NCPF 3281; shown in µM
Summary of the method: as §1

C. glabrata NCPF 8018 = assay: microbe, parasite or virus in culture; format: cell-based; details: C. glabrata NCPF 8018; shown in µM
Summary of the method: as §1

C. krusei NCPF 3876 = assay: microbe, parasite or virus in culture; format: cell-based; details: C. krusei NCPF 3876; shown in µM
Summary of the method: as §1

[3] = test system: C. parapsilosis NCPF 3209; assay: microbe, parasite or virus in culture; format: cell-based; details: C. parapsilosis NCPF 3209; shown in µM
Summary of the method: as §1

C. tropicalis NCPF 8760 = assay: microbe, parasite or virus in culture; format: cell-based; details: C. tropicalis NCPF 8760; shown in µM
Summary of the method: as §1

human erythrocytes = assay: In vitro hemolytic activity; format: cell-based; details: human erythrocytes in PBS, 1 h, 37 °C, OD550; from dose response curves
Description: Potential erythrocyte hemolysis was tested by incubating serial dilutions of the AMPs in PBS with freshly collected erythrocytes at a ratio of 1:1 in 96-well polypropylene V-shape plates for 1 h at 37 °C. Control wells were treated with 0.1% Triton-X-100 to ensure complete lysis or PBS-only to represent no lysis. The erythrocytes were collected by centrifugation and the OD550 of the supernatant was measured using a plate reader. The percentage hemolysis was calculated as [drawing 1] 1 where Apeptide is the absorbance value of erythrocytes exposed to a known peptide concentration, Agrowth control is the absorbance of erythrocytes exposed to 0.1% Triton-X-100 and Ablank is the absorbance of erythrocytes exposed to the PBS. The concentrations at which a peptide caused 10% (HC10) and 50% (HC50) hemolysis was determined from the dose response curves.

HaCat cell line = assay: In vitro HaCat cytotoxicity (MTT); format: cell-based, human; details: 21 h exposure, OD570, relative to untreated control
Description: The HaCat cell line (Cellonex, South Africa) was cultured in Dulbecco’s Modified Eagle Medium (DMEM) supplemented with 10% heat-inactivated fetal calf serum (FCS) and 1% antibiotic-antimycotic (Abs) and maintained at 5–10% CO2, 37 °C, 95% humidity. For cytotoxicity screening, 5.56 × 10^4 cells/mL were plated in a 96-well plate. After 24 h incubation, the cells are initially exposed to each peptide at a concentration of 256 μg/mL or 0.1% Triton-X-100 as the control for 21 h. If cytotoxicity was observed, at a level of significance of p < 0.0001 compared with the untreated control after 21 h, a dose-response assay was undertaken. Cell viability was determined by adding 10% 3-(4,5-dimethyl-2-thiazolyl)-2,5-diphenyl-2H-tetrazolium bromide (MTT) (1 mg/mL), to each well and after a further 3 h incubation the media was discarded, and the formazan crystals dissolved by adding 25% DMSO in ethanol. The absorbance was measured at OD570 by using the FLUOstar Omega multidetection microplate reader (BMG Labtech). Percentage cell viability was calculated relative to the untreated control. The LC50 was defined as the concentration of AMP treatment that results in 50% lethality of HaCat cells and was determined from the dose-response curves.

CC[C@H](C)[C@H](NC(=O)[C@H](C)NC(=O)[C@H](CCCCN)NC(=O)[C@@H]1CCCN1C(=O)[C@@H](NC(=O)[C@H](CC(C)C)NC(=O)[C@H](CCCCN)NC(=O)[C@H](Cc1ccccc1)NC(=O)[C@H](CC(C)C)NC(=O)[C@@H](N)Cc1ccccc1)[C@@H](C)CC)C(=O)N[C@@H](CCCCN)C(=O)N[C@@H](CCCCN)C(=O)N[C@@H](CC(C)C)C(=O)N[C@H](C(=O)N[C@@H](CO)C(=O)N[C@@H](CCCCN)C(=O)N[C@@H](Cc1ccccc1)C(=O)N[C@@H](CCCCN)C(N)=O)[C@@H](C)CC [AamAP1-Lysa] (H-FLFKLIPKAIKKLISKFK-NH2)
Modal MIC (E. coli LEC001): 3.6 µM | Modal MIC (E. coli NCTC 12923): 1.8 µM | Modal MIC (P. aeruginosa NCTC 13437): 7.2 µM | Modal MIC (P. aeruginosa PAO1): 7.2 µM | Modal MIC (A. baumannii ATCC 17978): 0.9 µM | Modal MIC (A. baumannii AYE): 1.8 µM | Modal MIC (K. pneumoniae M6): 3.6 µM | Modal MIC (K. pneumoniae NCTC 13368): 3.6 µM | Modal MIC (S. aureus (MRSA) 1199B): 1.8 µM | Modal MIC [1]: 0.9 µM | Modal MIC (S. aureus (MRSA) USA300): 1.8 µM | Modal MIC [2]: 1.8 µM | Modal MIC50 (C. auris TDG 1912; 50% growth inhibition, RPMI 1640 + 2% glucose, 37 °C, 20 h, OD600): > 128 µg/mL | Modal MIC90 (C. auris TDG 1912; 90% growth inhibition, RPMI 1640 + 2% glucose, 37 °C, 20 h, OD600): > 128 µg/mL | Modal MIC50 (C. auris TDG 1912; shown in µM): > 57.8 µM | Modal MIC90 (C. auris TDG 1912; shown in µM): > 57.8 µM | Modal MIC50 (C. albicans NCPF 3281): 14.4 µM | Modal MIC90 (C. albicans NCPF 3281): 28.8 µM | Modal MIC50 (C. glabrata NCPF 8018): 57.8 µM | Modal MIC90 (C. glabrata NCPF 8018): 57.8 µM | Modal MIC50 (C. krusei NCPF 3876): 7.2 µM | Modal MIC90 (C. krusei NCPF 3876): 7.2 µM | Modal MIC50 [3]: 14.4 µM | Modal MIC90 [3]: 14.4 µM | Modal MIC50 (C. tropicalis NCPF 8760): 0.9 µM | Modal MIC90 (C. tropicalis NCPF 8760): 0.9 µM | HC10 (concentration causing 10% hemolysis) (human erythrocytes): 53 µg/mL | HC50 (concentration causing 50% hemolysis) (human erythrocytes): 256 µg/mL | % HaCat cell death at initial screening (256μg/mL) ± SD (HaCat cell line): 94.8 ± 8.2%
